Measurements reported in patent US20260306525A1, “COMBINATION THERAPY GLUCOCORTICOIDS AND GINSENOSIDE” (FYTAGORAS B.V., priority 2023, published 2026).
Where two headings read alike, the source gives them in different places.

How the values were obtained:
zebrafish embryos [1] = conditions: in vivo
Method: (§2) Fish Embryo Acute Toxicity Test (FET) was performed to determine the tolerated doses of the studied compounds. […] A range of three test concentrations (100, 120, and 150 μM) of Rg1, Rh1, and F1 and (25, 50, and 75M) of PPT was used. […] Stock solutions were made in DMSO, and final dilutions in egg water (60 μg/mL Instant Ocean Sea salts and 0.0025% methylene blue), such that the final DMSO concentration were 0.01%. The following controls were used: a negative control (nC, egg water), a solvent control (sC, 0.01% DMSO in egg water), and positive control (pC), 4 mg/L 3,4-dichloroaniline (Sigma-Aldrich, St. Louis, MO, USA) in egg water.
(§3) Embryos were collected around at 1.5 hpf and distributed over standard twenty-four well plates (10 embryos per well), with each well containing 2 mL of test solution. […] Five 24-well plates were prepared, each with 3 wells containing the Rg1, F1, or Rh1 solutions (100, 120, 150 μM), 3 wells containing the PPT (25, 50, and 75 μM), two for nC and sC, and one for pC (on each plate, 7 wells remained empty). All solutions were refreshed daily.
(§4) The plates were kept at a temperature between 26 and 27° C. and exposed to a 12 h light and 12 h dark cycle. At 96, and 120 hpf, the average survival rate (in %) for all experimental groups was determined. Additionally, hatching was recorded at 48 and 72 hpf. Survival rates for the studied compound and pC-treated groups from the five individual plates were averaged.

IL1B = experiment: qPCR IL1B expression in TNF-α-treated HeLa cells; format: cell-based, human; conditions: for IL1B expression (TNF-α induced) / IL1B expression (TNF-α induced), short-term: 6 h; for IL1B expression (TNF-α induced): 0.01 μM beclomethasone, 20 μM Rg1 or combination
Method: (§1) HeLa (human cervical cancer) cells were cultured in Dulbecco's Modified Eagle's (DMEM) High Glucose (HG) medium without phenol red supplemented with 10% Fetal Calf Serum (FCS) and 10% Glutamax (Sigma-Aldrich). The cells were maintained at 37° C. and 5% CO2. At 24 h before adding the treatment, the medium was replaced by DMEM HG with 10% charcoal-inactivated serum and 10% Glutamax (Sigma-Aldrich). The cells were exposed to short- and long-term compound treatments. […] Subsequently, TNF-α (10 ng/ml) was added along with the compound treatments for 6 h (this last step was not added in the actinomycin-D and cycloheximide experiments).
To determine levels of gene expression in zebrafish larvae, 3 dpf larvae were used in both wounded and non-wounded conditions, and after short- and long-term treatments. Groups of 15 larvae were collected in TRIzol reagent (ThermoFisher) and total RNA was isolated using miRNeasy mini kit (Qiagen, Hilden, Germany). For experiments in HeLa cells, cells were seeded in 6 well plates and after treatment, the cells were removed from the wells using TRIzol reagent and mRNA was isolated using miRNeasy mini kit (Qiagen) according to the manufacturer's instructions. The RNA samples were DNAse-treated utilizing the DNA-free™ DNA Removal Kit (ThermoFisher Scientific). The cDNA synthesis was performed using the iScript cDNA synthesis kit (Bio-Rad Laboratories, Hercules, CA, USA) using 1 μg of RNA per sample. For qPCR, 10 μM of forward primer and 10 μM of reverse primer, 12.5 μl of IQ SYBR Green Supermix (Bio-Rad Laboratories), and 2 μl of cDNA were added to the qPCR reaction mixture. […] The qPCR reactions were performed on a MyiQ-single-color real-time PCR detection system (Bio-Rad Laboratories), with initial denaturation for 3 min, 95° C., and 40 cycles of 15 s at 95.5° C., 15 s at 60° C., and 30 s at 72° C. Cycle threshold values (Ct values, i.e. the cycle numbers at which a threshold value of the fluorescence intensity was reached) were determined for each sample. The gene expression level for each sample was normalized using the expression of ppial (peptidylprolyl isomerase Ab (cyclophilin A)) for zebrafish samples, and 18S rRNA for human cells. The fold change per sample (compared to the respective control group) was calculated using the […]Ct method.

MMP9 = experiment: qPCR MMP9 expression in HeLa cells; format: cell-based, human; conditions: beclomethasone 1 μM, Rg1 20 μM or combination; for MMP9 expression, long-term: 30 h
Method: as §1
To determine levels of gene expression in zebrafish larvae, 3 dpf larvae were used in both wounded and non-wounded conditions, and after short- and long-term treatments. Groups of 15 larvae were collected in TRIzol reagent (ThermoFisher) and total RNA was isolated using miRNeasy mini kit (Qiagen, Hilden, Germany). For experiments in HeLa cells, cells were seeded in 6 well plates and after treatment, the cells were removed from the wells using TRIzol reagent and mRNA was isolated using miRNeasy mini kit (Qiagen) according to the manufacturer's instructions. The RNA samples were DNAse-treated utilizing the DNA-free™ DNA Removal Kit (ThermoFisher Scientific). The cDNA synthesis was performed using the iScript cDNA synthesis kit (Bio-Rad Laboratories, Hercules, CA, USA) using 1 μg of RNA per sample. For qPCR, 10 μM of forward primer and 10 μM of reverse primer, 12.5 μl of IQ SYBR Green Supermix (Bio-Rad Laboratories), and 2 μl of cDNA were added to the qPCR reaction mixture. […] Cycle threshold values (Ct values, i.e. the cycle numbers at which a threshold value of the fluorescence intensity was reached) were determined for each sample. […] The fold change per sample (compared to the respective control group) was calculated using the […]Ct method.

GR protein = experiment: western blot GR protein level in HeLa cells; format: cell-based, human; conditions: for GR protein level, short-term: 6 h; for GR protein level, short-term / GR protein level, long-term: beclomethasone 1 μM, Rg1 20 μM or combination; for GR protein level, long-term: 24 h; for GR protein level in presence of cycloheximide (protein stability): long-term, with cycloheximide (5 μg/ml)
Method: as §1
Western blots were conducted to determine GR protein levels in HeLa cells. The cells were seeded as described previously in 6-well plates. The cells were exposed to short- and long-term compound treatments. […] Cells were harvested using trypsin (0.25% (v/v) trypsin in PBS, no EDTA), washed twice with PBS, and centrifuged. After centrifuging for 3 min at 3,000 rpm, cell pellets were stored at −80° C. until use. Cells were homogenized in potassium phosphate (KPi lysis buffer; 25 mM K2HPO4—KH2PO4 (pH 6.5)+0.1% (v/v) Triton X-100 (Merck, Darmstadt, Germany)) by sonication (20% amplitude, 3 s on, 3 s off for 4 cycles), using a Vibra-Cell™ VCX 130 sonicator (Sonics, Newtown, CT, USA), while on ice. The total protein concentration of the homogenates was determined using the Quickstart Bradford protein assay (Bio-Rad Laboratories) and measured using an EMax® plus microplate reader (Molecular Devices, Sunnyvale, CA, USA). HeLa cell homogenates (30 μg protein in 10 μl) were added to 30 μl Laemmli sample buffer, vortexed, and, boiled for 5 min at 98° C. Of each sample, 15 μl was loaded in duplicate on a 12% gradient precast SDS-PAGE gel (Bio-Rad Laboratories), and run for approximately 2 h at 90 V (no duplicates were used in the cycloheximide experiment). The experiments were performed 4 times (6 times for the cycloheximide experiment). After running the gel, proteins were transferred to a nitrocellulose membrane (Thermo Fisher Scientific) by using Bio-Rad Power Pac Basic Mini Electrophoresis System at 100 V for 1 h. The blot was washed in a blocking buffer (Tris-buffered saline containing 0.1% Tween-20 (TBST) with 3% BSA) 3 times for 15 min at room temperature. A primary GR antibody (Glucocorticoid Receptor Recombinant Rabbit Monoclonal Antibody (2D8, ThermoFisher Scientific)) at a 1:500 dilution in TBST with 3% BSA was added to the blots and incubated overnight at 4° C. The next day, the blot was washed with TBST 3 times for 5 min. Then, an HRP-conjugated anti-rabbit secondary antibody (Sigma-Aldrich) at 1:2000 dilution in TBST with 3% BSA was added and incubated at room temperature for 2 h. The blot was washed 3 times for 5 min in TBST with 3% BSA and twice for 5 min with TBST. The blot was incubated with 10 ml of Pierce™ enhanced chemiluminescence (ECL) western blotting substrate (ThermoFisher Scientific) for 1-2 min. Chemiluminescence was detected using a ChemiDoc MP imager (Bio-Rad Laboratories) at an exposure time of 1 min. The blot was washed 3 times for 5 min in TBST, then washed for 1 h in TBST with 3% BSA. A β-actin antibody (MA1-91399, ThermoFisher Scientific) was added at a 1:2000 dilution in TBST with 3% BSA to the blot and incubated overnight at 4° C. The next day, the blot was washed 3 times for 5 min in TBST with 3% BSA. Then, an HRP-conjugated anti-mouse secondary antibody (Sigma-Aldrich) at a 1:2000 dilution in TBST with 3% BSA was added and incubated at room temperature for 2 h. Subsequently, the blot was washed 3 times for 5 min in TBST. The blot was incubated with 10 ml of ECL substrate for 1-2 min, and chemiluminescence was visualized. The intensities of the GR and β-actin bands were quantified using ImageJ software, and the GR level was normalized to the level of β-actin.

zebrafish embryos [2] = experiment: Fish Embryo Acute Toxicity Test (FET); conditions: 0-120 hpf
Method: as §2, §3, §4

[3] = beclomethasone 1 μM without or with Rg1 20 μM, TNF-α

SMILES: CC(C)=CCC[C@](C)(O[C@@H]1O[C@H](CO)[C@@H](O)[C@H](O)[C@H]1O)[C@H]1CC[C@]2(C)[C@@H]1[C@H](O)C[C@@H]1[C@@]3(C)CC[C@H](O)C(C)(C)[C@@H]3[C@@H](O)C[C@]12C [F1]
- concentration until which no effects on hatching and survival were observed (zebrafish embryos [1]): 100 µM
- concentration with minimal effects on hatching and survival (zebrafish embryos [1]): 120 µM

SMILES: CC(C)=CCC[C@](C)(O)[C@H]1CC[C@]2(C)[C@@H]1[C@H](O)C[C@@H]1[C@@]3(C)CC[C@H](O)C(C)(C)[C@@H]3[C@@H](O)C[C@]12C [PPT, Protopanaxatriol]
- concentration until which no effects on hatching and survival were observed (zebrafish embryos [1]): 50 µM
- concentration with considerable effects on hatching and survival (zebrafish embryos [1]): 75 µM

SMILES: CC(C)=CCC[C@](C)(O[C@@H]1O[C@H](CO)[C@@H](O)[C@H](O)[C@H]1O)[C@H]1CC[C@]2(C)[C@@H]1[C@H](O)C[C@@H]1[C@@]3(C)CC[C@H](O)C(C)(C)[C@@H]3[C@@H](O[C@@H]3O[C@H](CO)[C@@H](O)[C@H](O)[C@H]3O)C[C@]12C [Rg1, (3β,6α, 12β)-3,12-Dihydroxydammar-24-ene-6,20-diyl bis-β-D-glucopyranoside]
- IL1B expression (TNF-α induced) (IL1B): slightly suppressed
- IL1B expression (TNF-α induced), short-term (IL1B; Rg1 20, 100 and 500 μM): caused a decrease in IL1B expression after short-term treatment
- IL1B expression (TNF-α induced), long-term vs short-term (IL1B; Rg1 20, 100 and 500 μM, 30 h): not significantly different after long-term treatment
- MMP9 expression, short-term (MMP9; 6 h): slightly suppressed
- MMP9 expression, long-term (MMP9): more strongly after long-term treatment
- GR protein level, short-term (GR protein): did not affect the GR mRNA or GR protein level
- GR protein level, long-term (GR protein): did not affect the GR mRNA or GR protein level
- GR protein level in presence of cycloheximide (protein stability) (GR protein): protein stability is affected in a similar way as the mRNA levels by beclomethasone, and not Rg1
- concentration until which no effects on hatching and survival were observed (zebrafish embryos [2]): 100 µM
- concentration with minimal effects on hatching and survival (zebrafish embryos [2]): 120 µM

SMILES: CC(C)=CCC[C@](C)(O)[C@H]1CC[C@]2(C)[C@@H]1[C@H](O)C[C@@H]1[C@@]3(C)CC[C@H](O)C(C)(C)[C@@H]3[C@@H](O[C@@H]3O[C@H](CO)[C@@H](O)[C@H](O)[C@H]3O)C[C@]12C [Rh1]
- concentration until which no effects on hatching and survival were observed (zebrafish embryos [2]): 100 µM
- concentration with minimal effects on hatching and survival (zebrafish embryos [2]): 120 µM

SMILES: C[C@H]1C[C@H]2[C@@H]3CCC4=CC(=O)C=C[C@]4(C)[C@@]3(Cl)[C@@H](O)C[C@]2(C)[C@@]1(O)C(=O)CO [beclomethasone, reference compound]
- IL1B expression (TNF-α induced) (IL1B): slightly suppressed
- IL1B expression time course, short-term (IL1B; beclomethasone 0.01 μM, TNF-α): hardly showed an effect
- IL1B expression time course, long-term (IL1B; [3]): did not show a significant suppressive effect on the expression of IL1B
- IL1B expression time course, short-term (IL1B; [3]): exhibited a strong suppressive effect on the IL1B expression
- IL1B expression (TNF-α induced), short-term (IL1B; beclomethasone 0.1 and 1 μM): strongly suppressed
- IL1B expression (TNF-α induced), long-term (IL1B; beclomethasone 0.1 and 1 μM, 30 h): a significant reduction in the suppressive effects of these high doses of beclomethasone was observed
- MMP9 expression, long-term (MMP9): the suppressive effects of beclomethasone were significantly reduced after long-term treatment
- GR protein level, short-term (GR protein): inhibited the expression of GR at both the mRNA and protein level
- GR protein level, long-term (GR protein): this inhibitory effect increased over time
- GR protein level in presence of cycloheximide (protein stability) (GR protein): protein stability is affected in a similar way as the mRNA levels by beclomethasone, and not Rg1
